Source: PubChem BioAssay (NCI)
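1) Cells in 96-well plates. 2) Compound, 48 h, 5 concentrations. 3) Linear interpolation between surrounding doses. 4) Unreached endpoint = highest concentration. GI50: concentration for 50% inhibition of growth. TGI is the concentration that stops growth completely.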

What was measured:
Test in all cases: NCI-60 cell line screen, 48 h
[1] = system: 786-0 renal
[2] = system: A498 renal
[3] = system: A549 NSCLC
[4] = system: ACHN renal
[5] = system: BT-549 breast
[6] = system: CAKI-1 renal
[7] = system: CCRF-CEM leukemia
[8] = system: COLO 205 colon
[9] = system: DU-145 prostate
[10] = system: HCC-2998 colon
[11] = system: HCT-116 colon
[12] = system: HCT-15 colon
[13] = system: HL-60(TB) leukemia
[14] = system: HOP-62 NSCLC
[15] = system: HOP-92 NSCLC
[16] = system: HS 578T breast
[17] = system: HT29 colon
[18] = system: IGROV1 ovarian
[19] = system: K-562 leukemia
[20] = system: KM12 colon
[21] = system: LOX IMVI melanoma
[22] = system: M14 melanoma
[23] = system: MALME-3M melanoma
[24] = system: MCF7 breast
[25] = system: MDA-MB-231 breast
[26] = system: MDA-MB-435
[27] = system: MOLT-4 leukemia
[28] = system: NCI-H226 lung
[29] = system: NCI-H23 lung
[30] = system: NCI-H460 lung
[31] = system: NCI-H522 lung
[32] = system: NCI/ADR-RES ovarian
[33] = system: OVCAR-3 ovarian
[34] = system: OVCAR-4 ovarian
[35] = system: OVCAR-5 ovarian
[36] = system: OVCAR-8 ovarian
[37] = system: PC-3 prostate
[38] = system: RPMI-8226 leukemia
[39] = system: RXF 393 renal
[40] = system: SF-268 CNS
[41] = system: SF-295 CNS
[42] = system: SF-539 CNS
[43] = system: SK-MEL-2 melanoma
[44] = system: SK-MEL-28 melanoma
[45] = system: SK-MEL-5 melanoma
[46] = system: SK-OV-3 ovarian
[47] = system: SN12C renal
[48] = system: SNB-19 CNS
[49] = system: SNB-75 CNS
[50] = system: SR leukemia
[51] = system: SW-620 colon
[52] = system: T-47D breast
[53] = system: TK-10 renal
[54] = system: U251 CNS
[55] = system: UACC-257 melanoma
[56] = system: UACC-62 melanoma
[57] = system: UO-31 renal

Cc1cc(=O)n2nnc3c4ccccc4ccc3n12
GI50 [1]: 8.25 µM | TGI [1]: 20.6 µM | GI50 [2]: 11.2 µM | TGI [2]: 23.2 µM | GI50 [3]: 10.8 µM | TGI [3]: 23.8 µM | GI50 [4]: 1580 nM | TGI [4]: 2970 nM | GI50 [5]: 7.76 µM | TGI [5]: 21.1 µM | GI50 [6]: 1640 nM | TGI [6]: 3.33 µM | GI50 [7]: 1060 nM | TGI [7]: 3.91 µM | GI50 [8]: 2970 nM | TGI [8]: 8.77 µM | GI50 [9]: 11.3 µM | TGI [9]: 23.4 µM | GI50 [10]: 16.5 µM | TGI [10]: 30.9 µM | GI50 [11]: 1850 nM | TGI [11]: 3.46 µM | GI50 [12]: 2860 nM | TGI [12]: 10.4 µM | GI50 [13]: 11.5 µM | TGI [13]: 37.2 µM | GI50 [14]: 6.11 µM | TGI [14]: 20.9 µM | GI50 [15]: 942 nM | TGI [15]: 15 µM | GI50 [16]: 15.2 µM | TGI [16]: 49 µM | GI50 [17]: 2360 nM | TGI [17]: 5.57 µM | GI50 [18]: 1960 nM | TGI [18]: 4.52 µM | GI50 [19]: 1800 nM | TGI [19]: 7.85 µM | GI50 [20]: 10.6 µM | TGI [20]: 22.6 µM | GI50 [21]: 4.42 µM | TGI [21]: 16.2 µM | GI50 [22]: 13.5 µM | TGI [22]: 27.1 µM | GI50 [23]: 2080 nM | TGI [23]: 8.19 µM | GI50 [24]: 2860 nM | TGI [24]: 10.5 µM | GI50 [25]: 11.4 µM | TGI [25]: 23.7 µM | GI50 [26]: 14.3 µM | TGI [26]: 29.9 µM | GI50 [27]: 3.39 µM | TGI [27]: 19.5 µM | GI50 [28]: 7.64 µM | TGI [28]: 27.1 µM | GI50 [29]: 12.4 µM | TGI [29]: 27.9 µM | GI50 [30]: 13.9 µM | TGI [30]: 30.4 µM | GI50 [31]: 1540 nM | TGI [31]: 2930 nM | GI50 [32]: 3.87 µM | TGI [32]: 43.9 µM | GI50 [33]: 1790 nM | TGI [33]: 3.37 µM | GI50 [34]: 1500 nM | TGI [34]: 3.27 µM | GI50 [35]: 1840 nM | TGI [35]: 14.7 µM | GI50 [36]: 2030 nM | TGI [36]: 6.97 µM | GI50 [37]: 4.22 µM | TGI [37]: 17.7 µM | GI50 [38]: 959 nM | TGI [38]: 4.03 µM | GI50 [39]: 10.8 µM | TGI [39]: 22.8 µM | GI50 [40]: 11 µM | TGI [40]: 23.1 µM | GI50 [41]: 14.8 µM | TGI [41]: 30.2 µM | GI50 [42]: 3.5 µM | TGI [42]: 16.7 µM | GI50 [43]: 16.5 µM | TGI [43]: 30.6 µM | GI50 [44]: 13.9 µM | TGI [44]: 27.1 µM | GI50 [45]: 12.8 µM | TGI [45]: 25.7 µM | GI50 [46]: 2720 nM | TGI [46]: 20.3 µM | GI50 [47]: 7.34 µM | TGI [47]: 21.5 µM | GI50 [48]: 12.8 µM | TGI [48]: 25.4 µM | GI50 [49]: 14.9 µM | TGI [49]: 29.9 µM | GI50 [50]: 2280 nM | TGI [50]: 13.7 µM | GI50 [51]: 1630 nM | TGI [51]: 3.11 µM | GI50 [52]: 1380 nM | TGI [52]: 3.14 µM | GI50 [53]: 1680 nM | TGI [53]: 3.2 µM | GI50 [54]: 14.9 µM | TGI [54]: 28.1 µM | GI50 [55]: 13 µM | TGI [55]: 25.7 µM | GI50 [56]: 5.3 µM | TGI [56]: 18.6 µM | GI50 [57]: 1200 nM | TGI [57]: 2720 nM
